Entries after “also recorded” stand apart in the source; their conditions may differ.
How the values were obtained:
[1] = system: MIAPaCa-2 human pancreatic tumor cells; assay: Xenogeneic mouse human pancreatic cancer model, tumors harvested at mortality (size, weight, vasculature, palpation); format: in vivo, NOD scid gamma (NSG) mice
[2] = system: triple-negative breast cancer (TNBC) xenografts; assay: Triple-negative breast cancer (TNBC) xenograft, survival; format: in vivo, Mice; conditions: FIG. 21
[3] = system: Aortic smooth muscle (HASMC); assay: Induction of early apoptosis (Bcl-2, annexin V, or caspase activation); format: cell-based; conditions: Heart: Aortic smooth muscle (HASMC)
Protocol: (§1) The effects of Coenzyme Q10 treatment on a variety of oncogenic and normal cell lines were examined and compared. The sensitivity of cells to Coenzyme Q10 was assessed by monitoring induction of apoptosis. CoQ10 treatment of cells was carried out as described in detail below in the Materials and Methods. Induction of apoptosis was assessed in the treated cells by monitoring indicators of early apoptosis (e.g., Bcl-2 expression, caspase activation and by using annexin V assays) as described below. From these studies, the minimal CoQ10 dosage, e.g., concentration of CoQ10 and time of treatment, required to induce apoptosis in the panel of cell lines was determined.
(§2) Cells were cultured in T-75 flasks with relevant medium supplemented with 10% Fetal Bovine Serum (FBS), 1% PSA (penicillin, streptomycin, amphotericin B) (Invitrogen and Cellgro) in a 37° C. incubator with 5% CO2 levels until 70-80% confluence was reached. To harvest cells for treatment, flasks were primed with 1 mL Trypsin, aspirated, trypsinized with an additional 3 mL, and incubated at 37° C. for 3-5 minutes. Cells were then neutralized with an equal volume of media and the subsequent solution was centrifuged at […] for 8 minutes. The supernatant was aspirated and the cells were resuspended with 8.5 ml of media. A mixture of 500 ul of the resuspension and 9.5 ml of […] was read twice by a coulter counter and the appropriate number of cells to be seeded into each dish was determined. Control and concentration ranging from 0-200 μM groups were examined in triplicate. From a 500 μM CoQ-10 stock solution, serial dilutions were performed to achieve desired experimental concentration in appropriate dishes. Dishes were incubated in a 37° C. incubator with 5% CO2 levels for 0-72 hours depending on cell type and experimental protocol.
(§3) Following cell treatment incubation period was complete, protein isolation was performed. Dishes of all treatment groups were washed twice with 2 ml, and once with 1 ml of ice cold 1× Phosphate Buffered Saline (PBS). The PBS was aspirated from the dishes after the initial 2 washes only. Cells were gently scraped and collected into microcentrifuge tubes using the final volume from the third wash and centrifuged at 10,000 rpm for 10 minutes. After centrifugation, the supernatant was aspirated and the pellet was lysed with 50 uL of lysis buffer (1 uL of protease and phosphotase inhibitor for every 100 uL of lysis buffer). Samples were then frozen overnight at −20° C.
(§4) After the cell treatment incubation period was complete, protein isolation was performed. Flasks of all treatment groups were washed twice with 5 mL, and once with 3 mL of ice cold 1×PBS. The PBS was aspirated from the flasks after the first 2 washes only. Cells were gently scraped and collected into 15 mL centrifuge tubes using the final volume from the third wash and centrifuged for at 10,000 rpm for 10 minutes. After centrifugation, the supernatant was aspirated and the pellet was lysed with an appropriate amount of lysis buffer (1 uL of protease and phosphotase inhibitor for every 100 uL of lysis buffer). Lysis buffer volume was dependent on pellet size. Samples were transferred in microcentrifuge tubes and frozen overnight at −20° C.
(§5) Samples were thawed at […] and sonicated to ensure homogenization the day following protein isolation. Protein quantification was performed using the micro BCA protein assay kit (Pierce). To prepare samples for Immuno-blotting, a 1:19 solution of betamercaptoethanol (Sigma) to sample buffer (Bio-Rad) was prepared. Samples were diluted 1:1 with the betamercaptoethanol-sample buffer solution, boiled at 95° C. for 5 minutes, and frozen overnight at −20° C.
(§6) The volume of sample to load per well was determined using the raw mean concentration of protein obtained from the BCA protein assay. Approximately 30-60 μg of protein were loaded for each treatment time point. […]

[4] = system: BT-20; assay: as above; format: cell-based; conditions: BREAST: BT-20
Protocol: as §1, §2, §3, §4, §5, §6

[5] = system: Ewing's sarcoma (NCI); assay: as above; format: cell-based; conditions: BONE: Ewing's sarcoma (NCI)
Protocol: as §1, §2, §3, §4, §5, §6

[6] = system: Fibroblasts (nFib); assay: as above; format: cell-based; conditions: SKIN: Fibroblasts (nFib)
Protocol: as §1, §2, §3, §4, §5, §6

[7] = system: HepG2; assay: as above; format: cell-based; conditions: LIVER: HepG2
Protocol: as §1, §2, §3, §4, §5, §6

[8] = system: MCF-7; assay: as above; format: cell-based; conditions: BREAST: MCF-7
Protocol: as §1, §2, §3, §4, §5, §6

[9] = system: MDA MB 468; assay: as above; format: cell-based; conditions: BREAST: MDA MB 468
Protocol: as §1, §2, §3, §4, §5, §6

[10] = system: Mammary fiboblasts: 184A1 and 184B5) (Lawrence Berkeley); assay: as above; format: cell-based; conditions: BREAST: Mammary fiboblasts: 184A1 and 184B5
Protocol: as §1, §2, §3, §4, §5, §6

[11] = system: Melanocytes (Hema, LP); assay: as above; format: cell-based; conditions: SKIN: Melanocytes (Hema, LP)
Protocol: as §1, §2, §3, §4, §5, §6

[12] = system: Melanoma (Skmel 2); assay: as above; format: cell-based; conditions: SKIN: Melanoma (Skmel 2)
Protocol: as §1, §2, §3, §4, §5, §6

[13] = system: Melanoma (Skmel 28); assay: as above; format: cell-based; conditions: SKIN: Melanoma (Skmel 28)
Protocol: as §1, §2, §3, §4, §5, §6

[14] = system: Osteosarcoma (143b); assay: as above; format: cell-based; conditions: BONE: Osteosarcoma (143b)
Protocol: as §1, §2, §3, §4, §5, §6

[15] = system: PC3; assay: as above; format: cell-based; conditions: PROSTATE: PC3
Protocol: as §1, §2, §3, §4, §5, §6

[16] = system: SkBr-3; assay: as above; format: cell-based; conditions: BREAST: SkBr-3
Protocol: as §1, §2, §3, §4, §5, §6

For `COC1=C(OC)C(=O)C(C/C=C(\C)CC/C=C(\C)CC/C=C(\C)CC/C=C(\C)CC/C=C(\C)CC/C=C(\C)CC/C=C(\C)CC/C=C(\C)CC/C=C(\C)CCC=C(C)C)=C(C)C1=O` [CoQ10, Coenzyme Q10], the “Growth of pancreatic tumors (tumor size at time of death) vs control” value ([1]; Example 1, single agents: Group 2 Coenzyme Q10 IV 50 mg/kg/day, Group 3 gemcitabine 150 mg/kg/week, FIG. 2) was “inhibited the growth of pancreatic tumors; also recorded: inhibits pancreatic tumor growth”, the “Tumor vasculature (histological analysis)” value ([1]; Example 1, intravenous Coenzyme Q10 vs untreated control mice, not quantified) was “decreased tumor vasculature; also recorded: decrease in the amount of vasculature in pancreatic tumors” and the “Tumor weight / tumor growth, combination of Coenzyme Q10 and gemcitabine (Group 4)” value ([1]; Example 1, vs Coenzyme Q10 alone or gemcitabine alone, FIG. 3) was “significantly smaller than tumors from mice treated with Coenzyme Q10 alone; also recorded: more effective at inhibiting the growth of pancreatic tumors in mice than treatment with either agent alone”. For the same compound, the “Tumor weight at mortality, Coenzyme Q10 alone (Group 2)” value ([1]; Example 1, vs control group and gemcitabine treated group, FIG. 3) was “significantly smaller than tumors from mice in the control group”, the “Survival, CoQ10 in combination with the TAC regimen” value ([2]; 75 mg/kg CoQ10, TAC: 5 mg/kg docetaxel, 1 mg/mg doxorubicin, 35 mg/kg cyclophosphamide every three weeks for six cycles) was “significantly improved survival” and the “Survival, CoQ10 alone” value ([2]; 75 mg/kg body weight CoQ10 (BPM 31510)) was “significantly improved survival”. For the same compound, the “Indication of Early apoptosis (Bcl-2, annexin V, or caspase activation)” value (“Indication of Early apoptosis” below) [3] was “None”, the “Indication of Early apoptosis” value [4] was “Strong” and the “Minimal CoQ10 concentration required for induction of early apoptosis, Concentration” value (“Minimal CoQ10 concentration required” below) [4] was 100 µM. For the same compound, the “Minimal treatment time required for induction of early apoptosis, Time” value (“Minimal treatment time required” for short) [4] was 48 h, the “Minimal CoQ10 concentration required” value [5] was 5 µM and the “Minimal treatment time required” value [5] was 1 h. The “Indication of Early apoptosis” value ([5]; cell wraps: Extremely / strong) was “Extremely”, the “Indication of Early apoptosis” value [6] was “None” and the “Indication of Early apoptosis” value [7] was “Very Strong”. The “Minimal CoQ10 concentration required” value [7] was 50 µM, the “Minimal treatment time required” value [7] was 24 h and the “Indication of Early apoptosis” value [8] was “Strong”. For the same compound, the “Minimal CoQ10 concentration required” value [8] was 50 µM, the “Minimal treatment time required” value [8] was 48 h and the “Indication of Early apoptosis” value [9] was “Strong”. The “Minimal CoQ10 concentration required” value [9] was 100 µM, the “Minimal treatment time required” value [9] was 48 h and the “Indication of Early apoptosis” value [10] was “None”. For the same compound, the “Indication of Early apoptosis” value [11] was “None”, the “Indication of Early apoptosis” value [12] was “Very Strong” and the “Minimal CoQ10 concentration required” value [12] was 25 µM. The “Minimal treatment time required” value [12] was 24 h, the “Indication of Early apoptosis” value [13] was “Strong” and the “Minimal CoQ10 concentration required” value [13] was 20 µM. The “Minimal treatment time required” value [13] was 24 h, the “Indication of Early apoptosis” value [14] was “Very Strong” and the “Minimal CoQ10 concentration required” value [14] was 50 µM. The “Minimal treatment time required” value [14] was 48 h, the “Indication of Early apoptosis” value [15] was “Very Strong” and the “Minimal CoQ10 concentration required” value [15] was 25 µM. The “Minimal treatment time required” value [15] was 24 h, the “Indication of Early apoptosis” value [16] was “Very Strong” and the “Minimal CoQ10 concentration required” value [16] was 50 µM. The “Minimal treatment time required” value [16] was 24 h.

— patent publication US10933032B2, “Methods for the treatment of cancer using coenzyme Q10 combination therapies” (Berg LLC, priority 2013, dated 2021)
